Data: patent publication US20060160790A1, “Thioureas as factor Xa inhibitors” (Portola Pharmaceuticals, Inc., priority 2004, published 2006)

Target: T1, human plasma protein factor Xa (Homo sapiens, UniProt P00742)
T1 construct: measure proteolytic activity of the enzyme (factor Xa) by following cleavage of paranitroanilide substrate; purchased Haematologic Technologies (Essex Junction, Vt.); host or cells: human plasma
Test: Factor Xa IC50 determination (cleavage of paranitroanilide substrate S-2765)
Assay type: biochemical
Settings: fXa 1 nM, S2765 100 μM, Tris buffered saline pH 7.4, room temperature
Method: An in vitro assay for detecting and measuring inhibition activity against Factor Xa is as follows:
The substrate S-2765 (Z-D-Arg-Gly-Arg-pNA.HCl) was obtained from Diapharma (West Chester, Ohio).
The human plasma protein factor Xa was purchased from Haematologic Technologies (Essex Junction, Vt.).
All assays, which are performed in 96-well microtiter plates, measure proteolytic activity of the enzyme (factor Xa) by following cleavage of paranitroanilide substrate. The assay buffer used for proteolytic assays was Tris buffered saline (20 mM Tris, 150 mM NaCl, 5 mM CaCl2, 0.1% Bovine serum albumin (BSA), 5% Dimethly Sulfoxide (DMSO) pH 7.4). In a 96-well microtiter plate, inhibitor was serially diluted to give a range of concentrations from 0.01 nM to 10 μM (final). Duplicate sets of wells were assayed and control wells without inhibitor were included. Enzyme was added to each well, (fXa concentration=1 nM), the plate was shaken for 5 seconds and then incubated for 5 minutes at room temperature. S2765 was added (100 μM final) and the plate was shaken for 5 seconds (final liquid volume in each well was 200 μl). The degree of substrate hydrolysis was measured at 405 nm on a Thermomax plate reader (Molecular Devices, Sunnyvale, Calif.) for 2 minutes. The initial velocities (mOD/min), for each range of inhibitor concentrations, were fitted to a four parameter equation using Softmax data analysis software. The parameter C, derived from the resulting curve-fit, corresponded to the concentration for half maximal inhibition (IC50).

T1 sequence (P00742 235-488 limits assumed): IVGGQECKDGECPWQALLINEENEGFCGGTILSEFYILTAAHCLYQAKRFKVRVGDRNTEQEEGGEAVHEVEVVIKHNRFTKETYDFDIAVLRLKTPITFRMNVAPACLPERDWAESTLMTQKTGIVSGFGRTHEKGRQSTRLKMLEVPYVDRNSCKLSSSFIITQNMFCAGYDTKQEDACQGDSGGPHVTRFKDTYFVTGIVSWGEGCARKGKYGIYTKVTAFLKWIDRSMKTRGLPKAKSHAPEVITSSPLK
T1 sequence (P00742 41-179 partner limits assumed): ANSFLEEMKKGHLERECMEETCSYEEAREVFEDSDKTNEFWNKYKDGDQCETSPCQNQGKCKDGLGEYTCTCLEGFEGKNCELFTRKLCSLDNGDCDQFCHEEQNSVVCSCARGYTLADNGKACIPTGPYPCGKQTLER

SMILES	IC50
N=C(c1ccc(NC(=O)[C@@H](NC(=S)Nc2ccc(Cl)cc2)c2ccccc2)cc1)N1CCCC1 [Example 16]	≤ 100 nM
NS(=O)(=O)c1ccccc1-c1ccc(NC(=O)C(NC(=S)Nc2ccc(Cl)cc2)c2ccccc2)cc1 (stereo in doubt) [Example 33, (R) N-[4-(2-aminosulfonylphenyl)phenyl]-2-phenyl-2-(4-chlorophenylaminothiocarbonylamino)-acetamide]	≤ 100 nM
N=C(c1ccc(NC(=O)C(NC(=S)Nc2ccc(Br)cc2)c2ccccc2)cc1)N1CCCC1 (stereo not drawn) [Example 5]	≤ 100 nM
CN1CCC(C2CCN(C(=O)[C@H](NC(=S)Nc3ccc(Cl)cc3)c3ccccc3)CC2)CC1 [Example 37, (2R) 4-(1-methylpiperidin-4-yl)piperidin-1-yl-2-phenyl-2-(4-chlorophenylaminothiocarbonylamino)-acetamide]	≥ 500 nM
Cc1cc2cc(NC(=S)N[C@@H](CC(C)C)C(=O)Nc3ccc(C(=N)N(C)C)cc3)ccc2o1 [Example 3]	≥ 500 nM
N=C(c1ccc(NC(=O)[C@@H](NC(=S)Nc2ccc(Cl)cc2Cl)c2ccccc2)cc1)N1CCCC1 [Example 20]	≥ 500 nM
N=C(c1ccc(NC(=O)[C@@H](NC(=S)Nc2ccc(Br)cc2)c2ccccc2)cc1)N1CCCCCC1 [Example 15]	≤ 100 nM
Cc1cc2cc(NC(=S)NC(C(=O)Nc3ccc(-c4ccccc4S(N)(=O)=O)cc3)c3ccccc3)ccc2o1 (stereo not drawn) [Example 28, N-[4-(2-aminosulfonylphenyl)phenyl]-2-phenyl-2-[(2-methylbenzo[b]furan-5-yl)aminothiocarbonylamino]-acetamide]	≤ 100 nM
O=C(Nc1ccc(N2CCOCC2=O)cc1)C(NC(=S)Nc1ccc(Cl)cc1)c1ccccc1 (stereo not drawn) [Example 25, N-[4-(3-oxo-morpholin-4-yl)phenyl]-2-phenyl-2-(4-chlorophenylaminothiocarbonylamino)-acetamide]	≤ 100 nM
N=C(c1ccc(NC(=O)[C@@H](NC(=S)Nc2c(Br)cc(Br)cc2Br)c2ccccc2)cc1)N1CCCC1 [Example 23]	≥ 500 nM
N=C(c1ccc(NC(=O)[C@@H](NC(=S)Nc2ccc(Br)cc2C(F)(F)F)c2ccccc2)cc1)N1CCCC1 [Example 22]	≥ 500 nM
Cc1cc(Br)ccc1NC(=S)N[C@H](C(=O)Nc1ccc(C(=N)N2CCCC2)cc1)c1ccccc1 [Example 19]	≥ 500 nM
N=C(c1ccc(NC(=O)[C@@H](NC(=S)Nc2ccc(Br)c(Cl)c2)c2ccccc2)cc1)N1CCCC1 [Example 21, (S) N-[4-(pyrrolidinylimino)phenyl]-2-phenyl-2-(3-chloro-4-bromophenylaminothiocarbonylamino)-acetamide]	≥ 500 nM
N=C(c1ccc(NC(=O)[C@@H](NC(=S)Nc2ccc(Br)cc2OC(F)(F)F)c2ccccc2)cc1)N1CCCC1 [Example 18]	≥ 500 nM
Cc1cc2cc(NC(=S)NCC(=O)Nc3ccc(C4=NCCN4C)cc3)ccc2o1 [Example 2, N-[4-(1-methyl-4,5-dihydro-1H-imidazol-2-yl)phenyl]-2-[(2-methylbenzo[b)furan-5-yl)aminothiocarbonylamino]-acetamide]	≥ 500 nM

Next, values leading:

IC50	SMILES
≥ 500 nM	N=C(c1ccc(NC(=O)[C@@H](NC(=S)Nc2ccc(Br)cc2F)c2ccccc2)cc1)N1CCCC1 [Example 17]
≤ 100 nM	N=C(c1ccc(NC(=O)C(NC(=S)Nc2ccc(Br)cc2)c2ccccc2)cc1)N1CCC1 (stereo not drawn) [Example 6]
100 to 500 nM	N=C(c1ccc(NC(=O)[C@@H](NC(=S)Nc2ccc(Br)cc2)c2ccccc2)cc1)N1CCCCC1 [Example 14, (S) N-[4-(piperidinylimino)phenyl]-2-phenyl-2-(4-bromophenylaminothiocarbonylamino)-acetamide]
≤ 100 nM	N=C(c1ccc(NC(=O)C(NC(=S)Nc2ccc(F)cc2)c2ccccc2)cc1)N1CCCC1 (stereo not drawn) [Example 10]
≤ 100 nM	CC(C)C(NC(=S)Nc1ccc(Cl)cc1)C(=O)Nc1ccc(C2=NCCN2C)cc1 (stereo not drawn) [Example 24, N-[4-(1-methyl-4,5-dihydro-1H-imidazol-2-yl)phenyl]-2-isopropyl-2-(4-chlorophenylaminothiocarbonylamino]-acetamide]
≤ 100 nM	O=C(Nc1ccc(-n2ccccc2=O)cc1)[C@@H](NC(=S)Nc1ccc(Cl)cc1)c1ccccc1 [Example 34, (2S) N-[4-(2-pyridon-1-yl)phenyl]-2-phenyl-2-(4-chlorophenylaminothiocarbonylamino)-acetamide]
≤ 100 nM	NS(=O)(=O)c1ccccc1-c1ccc(NC(=O)C(NC(=S)Nc2ccc(Br)cc2)c2ccccc2)cc1 (stereo not drawn) [Example 29, N-[4-(2-aminosulfonylphenyl)phenyl]-2-phenyl-2-[(4-bromophenyl)aminothiocarbonylamino]-acetamide]
≤ 100 nM	CN1CCN=C1c1ccc(NC(=O)C(NC(=S)Nc2ccc(Br)cc2)c2ccccc2)cc1 (stereo not drawn) [Example 9, N-[4-(1-methyl-4,5-dihydro-1H-imidazol-2-yl)phenyl]-2-phenyl-2-(4-bromophenylaminothiocarbonylamino)-acetamide]
100 to 500 nM	NS(=O)(=O)c1ccccc1-c1ccc(NC(=O)C(NC(=S)Nc2ccc(Cl)cc2)c2ccccc2)cc1 (stereo in doubt) [Example 32, (S) N-[4-(2-aminosulfonylphenyl)phenyl]-2-phenyl-2-(4-chlorophenylaminothiocarbonylamino)-acetamide]
≤ 100 nM	O=C(Nc1ccc(-n2ccccc2=O)cc1)[C@H](NC(=S)Nc1ccc(Cl)cc1)c1ccccc1 [Example 35, (2R) N-[4-(2-pyridon-1-yl)phenyl]-2-phenyl-2-(4-chlorophenylaminothiocarbonylamino)-acetamide]
100 to 500 nM	NS(=O)(=O)c1ccccc1-c1ccc(NC(=O)[C@H](NC(=S)Nc2ccc(Br)cn2)c2ccccc2)cc1 [Example 31, (R) N-[4-(2-aminosulfonylphenyl)phenyl]-2-phenyl-2-(5-bromopyridin-2-ylaminothiocarbonylamino)-acetamide]
≤ 100 nM	C#Cc1ccc(NC(=S)NC(C(=O)Nc2ccc(C(=N)N3CCCC3)cc2)c2ccccc2)cc1 (stereo not drawn) [Example 11]
≤ 100 nM	NS(=O)(=O)c1ccccc1-c1ccc(NC(=O)[C@@H](NC(=S)Nc2ccc(Br)cn2)c2ccccc2)cc1 [Example 30, (S) N-[4-(2-aminosulfonylphenyl)phenyl]-2-phenyl-2-(5-bromopyridin-2-ylaminothiocarbonylamino)-acetamide]
≤ 100 nM	CN1CCC(N2CCN(C(=O)[C@H](NC(=S)Nc3ccc(Cl)cc3)c3ccccc3)CC2)CC1 [Example 27]
≤ 100 nM	O=C(Nc1ccc(-n2ccccc2=O)cc1F)[C@H](NC(=S)Nc1ccc(Cl)cc1)c1ccccc1 [Example 36, (2R) N-[4-(2-pyridon-1-yl)-2-fluorophenyl]-2-phenyl-2-(4-chlorophenylaminothiocarbonylamino)-acetamide]
≤ 100 nM	CN1CCC(N2CCN(C(=O)[C@@H](NC(=S)Nc3ccc(Cl)cc3)c3ccccc3)CC2)CC1 [Example 26]
≥ 500 nM	CCOC(=O)C1CCN(C(=N)c2ccc(NC(=O)C(NC(=S)Nc3ccc(Br)cc3)c3ccccc3)cc2)CC1 (stereo not drawn) [Example 8]
≥ 500 nM	Cc1cc2cc(NC(=S)NCC(=O)Nc3ccc(C(=N)N(C)C)cc3)ccc2o1 [Example 1, N-[4-(dimethylaminoimino)phenyl]-2-[(2-methylbenzo[b]furan-5-yl)aminothiocarbonylamino]-acetamide]
≤ 100 nM	COCCN(C)C(=N)c1ccc(NC(=O)C(NC(=S)Nc2ccc(Br)cc2)c2ccccc2)cc1 (stereo not drawn) [Example 7, N-{4-[(N-methyl-N-2-methoxyethyl)aminoimino]phenyl}-2-phenyl-2-(4-bromophenylaminothiocarbonylamino)-acetamide]
≤ 100 nM	N=C(c1ccc(NC(=O)[C@@H](NC(=S)Nc2ccc(Br)cc2)c2ccccc2)cc1)N1CCCC1 [Example 13, (S) N-[4-(pyrrolidinylimino)phenyl]-2-phenyl-2-(4-bromophenylaminothiocarbonylamino)-acetamide]
≤ 100 nM	CN(C)C(=N)c1ccc(NC(=O)C(NC(=S)Nc2ccc(Br)cc2)c2ccccc2)cc1 (stereo not drawn) [Example 4, N-[4-(dimethylaminoimino)phenyl]-2-phenyl-2-(4-bromophenylaminothiocarbonylamino)-acetamide]
